Here are results for one compound from patent publication US11466028B2, “Fused 1,4-oxazepines as BET protein degraders” (THE REGENTS OF THE UNIVERSITY OF MICHIGAN, priority 2016, dated 2022).

The target in one assay is T1, BRD2 (Homo sapiens, UniProt P25440).
T1 construct: endogenous in cells; host or cells: RS4;11 and MOLM-13 leukemia cells
Nature of the assay: Western blot, degradation of BRD2 in MOLM-13 cells. In kind it is cell-based. To be noted: 3 h, as compared to Compound A, FIG. 2. The protocol:
(§1) Cells were treated with compounds at the indicated concentrations for 2.5 h and 3 h, respectively, for RS4;11 (see FIG. 1) and MOLM-13 (see FIG. 2) cells. Compound A is ((S)-3-benzyl-6,9-dimethyl-2-((1-methyl-1H-pyrazol-4-yl)ethynyl)-4H,6H-thieno[2,3-e][1,2,4]triazolo[3,4-c][1,4]oxazepine). See Cpd. No. 85 of U.S. Appl. No. 62/295,271.
(§2) Collected cells were lysed in lysis buffer [1% CHAPS, 150 mM NaCl, 20 mM Tris-HCl, 1 mM. EDTA, 1 mM EGTA, and COMPLETE proteinase inhibitor (Roche)] for 30 minutes on ice. Protein concentrations were determined using the Bio-Rad Protein Assay Dye reagent. Whole tumor lysates (20 μg) were separated on a 4-20% Novex gels (Invitrogen). The separated proteins were transferred to a PVDF membrane (BIO-RAD) and the PVDF membrane was then blotted with 5% Blotting-Grade Blocker (BIO-RAD) for 1 hour at room temperature. The primary antibodies used were BRD4 rabbit polyclonal antibody [Bethyl Laboratories, Inc, cat #A301] and BRD2 antibody.
(§3) The BIO-RAD Clarity Western ECL Substrates (BIO-RAD) and HyBlot CL film (Denville) were used for signal development and detection using a SRX-101A tabletop processor (Konica Minolta).
In general terms: In western blotting, separated proteins are transferred to a membrane and probed.

The test system of a further assay is HBL100. Nature of the assay: WST-8 cell growth inhibition assay, HBL100. It counts as cell-based. To be noted: Homo sapiens, HBL-100; WST-8, Table 6. The procedure:
(§4) Cpd. Nos. 7 and 18 were tested in various triple-negative breast cancer cell lines using the WST-8 cell growth assay.
(Tetrazolium dyes change colour on reduction, which living cells bring about.)

A further assay has as its system AML5. The assay is described as follows: CellTiter-Glo cell viability, AML5 leukemia cell line. It counts as cell-based. To be noted: Table 5. The procedure: (§5) Cell growth inhibitory activity of representative Compounds of the Disclosure was determined using the CellTiter-Glo® Luminescent Cell Viability Assay. Cells were seeded in 384-well white opaque cell culture plates at a density of 2,000 cells/well with serially diluted compounds and incubated at 37° C. in an atmosphere of 95% air and 5% CO2 for 4 days. Cell viability was determined using the CellTiter-Glo® Luminescent Cell Viability Assay Kit (Promega, Madison, Wis.) according to the manufacture's instruction. Briefly, a volume of CellTiter-Glo® Reagent equal to the volume of cell culture medium was added to each well, and then the plates were incubated at room temperature for 10-20 minutes. The luminescent signal was measured using a Tecan Infinite M1000 multimode microplate reader (Tecan, Morrisville, N.C.). The half maximal inhibitory concentration (IC50) was calculated using the GraphPad Prism 5 software (GraphPad Software, La Jolla, Calif.).
(§6) Cpd. Nos. 18 and 19 were tested in various leukemia cell lines using the CellTiter-Glo® Luminescent Cell Viability Assay as described in Example 35.
In general terms: ATP-based viability assays read luminescence as a measure of living cells.

The next assay deals with MDA-MB-231. Nature of the assay: CellTiter-Glo cell growth inhibition, MDA-MB-231. The note with it: Homo sapiens, MDA-MB-231, 96 h, 4 days, Table 4. It counts as cell-based. The gist of the method: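 Cells seeded at 2,000 cells/well with serially diluted compound and incubated 4 days at 37 °C, 5% CO2. Viability read by CellTiter-Glo luminescence after 10-20 min at room temperature; IC50 calculated from the dose-response.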

The test system of another assay is MDA-MB-157. Nature of the assay: WST-8 cell growth inhibition assay, MDA-MB-157. It counts as cell-based. To be noted: Homo sapiens, WST-8, Table 6. The protocol: as §4
For a further assay, the system named is WHIM24 breast cancer PDX. Nature of the assay: WHIM24 breast cancer PDX model. In kind it is in vivo. To be noted: FIG. 5. The protocol: (§7) Representative Compounds of the Disclosure were tested in the RS4;11 and other xenograph models using similar techniques. […] No. 22 in the MDA-MB-231 TNBC model.
Another assay relates to RS4;11 xenograph tumors. Nature of the assay: RS4;11 xenograft model. It counts as in vivo, SCID mice. The note with it: SCID mice, i.v. 5 mg/kg at days 1, 3, 5 per week for two weeks, FIG. 4. The procedure:
Cpd. Nos. 7 and 11 were dissolved in 10% PCP [10% PEG400 (Sigma), 3% Cremophor (Sigma), and 87% PBS (Gibco)]. The pH of the drug solutions were checked before use and adjusted with 0.5N NaOH to be between pH 6.5 and 8.0 for IV (intravenous) administration.
RS4;11 cells were maintained at 37° C., 95% air, 5% carbon dioxide in Improved MEM (Richter's Mod.) supplemented with 10% Fetal Bovine Serum, 100 units/ml of penicillin and 100 units/ml of streptomycin (GIBCO™, Invitrogen Corp.) and passaged twice weekly.
Tumor cells for xenografts were harvested with Trypsin (0.05%)-EDTA (0.53 mM) (GIBCO™, Invitrogen Corp.), growth medium added and cells placed on ice. Cells were washed once with 1×PBS (GIBCO™, Invitrogen Corp.) and re-suspended in PBS. After washing in PBS, cells were re-suspended in an ice cold mixture of 1:1 PBS and Matrigel (BD Biosciences, Invitrogen Corp.) for a final Matrigel protein concentration of 5 mg/ml. Cells at 5×10^6 cells in 0.1 ml were injected subcutaneously (s.c.) into the flank region of each mouse using a 25 gauge needle. All tumors were inoculated into SCID mice (strain:236) C.B-17 SCID, Charles River.
The size of tumors growing in the mice was measured in two dimensions using calipers. Tumor volume (mm^3)═(A×B^2)/2 where A and B are the tumor length and width (in mm), respectively. During treatment, tumor volume and body weight were measured three times a week. After the treatment was stopped, tumor volume and body weight was measured at least once a week.
Tumors were not allowed to exceed 10% of the animals total body weight. If an animal had two or more tumors the total weight of all tumors were not allowed to exceed 10% of the animal's total body weight. At the end of the experimental period or when tumor size approached 10% of the total body weight, the animal was euthanized.
Before treatment began, tumors were allowed to grow to 100-200 mm^3 in volume, at which point the blood vessel supplies to the tumor should have been well established. Mice with tumors within acceptable size range were randomized into treatment groups of seven mice. Cpd. Nos. 7 and 11 were given i.v. at 10 mg/kg at days 1,3, and 5 per week for two weeks. The Control group received vehicle alone. Cpd. Nos. 16, 18, 22 and 48 were given i.v. at 5 mg/kg at days 1, 3, and 5 per week for two weeks. The Control group received vehicle alone.
as §7

The target of a further assay is T2, BRD4 (Homo sapiens, UniProt O60885).
T2 construct: Collected cells were lysed in lysis buffer; endogenous in cells; host or cells: RS4;11 and MOLM-13 leukemia cells
Nature of the assay: Western blot, degradation of BRD4 in MOLM-13 cells. It counts as cell-based. To be noted: 3 h, as compared to Compound A, FIG. 2. The procedure: as §1, §2, §3

For the next assay, the system named is KG1. Nature of the assay: CellTiter-Glo cell viability, KG1 leukemia cell line. In kind it is cell-based. The note with it: Homo sapiens, KG-1, Table 5. The protocol: as §5, §6

The structures appear in SMILES notation.

T1 sequence (P25440 whole entry): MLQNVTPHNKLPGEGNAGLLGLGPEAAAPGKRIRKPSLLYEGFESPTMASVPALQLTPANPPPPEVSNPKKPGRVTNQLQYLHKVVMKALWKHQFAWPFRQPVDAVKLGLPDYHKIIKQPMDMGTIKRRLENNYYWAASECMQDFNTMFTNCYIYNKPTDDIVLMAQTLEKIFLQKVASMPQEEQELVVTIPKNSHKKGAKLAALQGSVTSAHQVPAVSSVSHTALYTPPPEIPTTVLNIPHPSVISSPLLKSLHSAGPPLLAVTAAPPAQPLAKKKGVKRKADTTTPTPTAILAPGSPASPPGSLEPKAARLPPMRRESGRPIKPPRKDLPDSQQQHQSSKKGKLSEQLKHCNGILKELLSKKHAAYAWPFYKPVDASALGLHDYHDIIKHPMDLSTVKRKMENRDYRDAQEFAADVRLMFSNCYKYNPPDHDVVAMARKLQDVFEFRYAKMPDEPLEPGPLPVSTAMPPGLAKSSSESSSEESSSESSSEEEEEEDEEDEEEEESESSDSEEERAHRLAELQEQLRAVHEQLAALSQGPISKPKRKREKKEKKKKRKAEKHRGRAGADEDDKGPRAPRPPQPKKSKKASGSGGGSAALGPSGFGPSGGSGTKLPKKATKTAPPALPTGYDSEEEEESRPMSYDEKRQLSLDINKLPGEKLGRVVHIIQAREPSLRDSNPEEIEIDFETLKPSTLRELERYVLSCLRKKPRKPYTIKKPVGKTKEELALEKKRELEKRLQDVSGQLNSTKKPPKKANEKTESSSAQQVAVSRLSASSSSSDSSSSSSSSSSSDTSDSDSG

Broadly, the IC50 is the concentration needed to halve the response being measured. The low end stands for inhibition by little substance, the high end for a need for much substance. For the compound `Cc1nnc2n1-c1sc(C#Cc3cnn(CCCC#Cc4cccc5c4CN(C4CCC(=O)NC4=O)C5=O)c3)c(Cc3ccccc3)c1CO[C@H]2C` (stereo partly drawn) [Cpd. No. 18, 3-(4-(5-(4-(((S)-3-benzyl-6,9-dimethyl-4H,6H-thieno[2,3-e][1,2,4]triazolo[3,4-c][1,4]oxazepin-2-yl)ethynyl)-1H-pyrazol-1-yl)pent-1-yn-1-yl)-1-oxoisoindolin-2-yl) piperidine-2,6-dione], the “degradation of BRD2 protein (Western blot)” value on BRD2 is given as “induce degradation”. Besides, the IC50 with HBL100 was 0.84 ± 0.14 nM; with AML5, less than 0.01 nM; in the assay on MDA-MB-231, 1500 pM; with MDA-MB-157, 0.06 ± 0.01 nM; in the assay on KG1, 0.047 ± 0.02 nM. For the same compound, the “tumor regression in the WHIM24 breast cancer PDX model” value in the assay on WHIM24 breast cancer PDX is given as “induces tumor regression”. Also, in the assay with RS4;11 xenograph tumors, the “tumor regression in RS4;11 xenograph tumors” value is reported as “induce tumor regression”. Moreover, the “degradation of BRD4 protein (Western blot)” value at BRD4 is recorded as “induce degradation”.
